According to PubChem BioAssay AID1259407 (Chemical Carcinogenesis Research Information System (CCRIS), 2018):
The source made the active and inactive calls. The rule behind the calls is not given here.

Test system: CCRIS mutagenicity, Ames/micronucleus/aberration tests
Experiment: CCRIS mutagenicity studies
[1] = Test System: AMES SALMONELLA TYPHIMURIUM, Strain/Indicator: TA98, Metabolic Activation: NONE, Method: PREINCUBATION
[2] = Test System: AMES SALMONELLA TYPHIMURIUM, Strain/Indicator: TA100, Metabolic Activation: NONE, Method: PREINCUBATION
[3] = Test System: AMES SALMONELLA TYPHIMURIUM, Strain/Indicator: TA102, Metabolic Activation: NONE, Method: PREINCUBATION
[4] = Test System: AMES SALMONELLA TYPHIMURIUM, Strain/Indicator: TA98, Metabolic Activation: RAT, LIVER, S-9, KANECHLOR 500, Method: PREINCUBATION
[5] = Test System: AMES SALMONELLA TYPHIMURIUM, Strain/Indicator: TA100, Metabolic Activation: NONE, Method: STANDARD PLATE

Nc1c(C(=O)N/N=C/c2ccccc2)[nH]c2ccccc12
mutagenic call (Test System: AMES SALMONELLA TYPHIMURIUM, Strain/Indicator: TA97, Metabolic Activation: NONE, Method: PREINCUBATION): inactive; negative | mutagenic call (Test System: AMES SALMONELLA TYPHIMURIUM, Strain/Indicator: TA97, Metabolic Activation: S-9 (10%), Method: PREINCUBATION): inactive; negative | mutagenic call [1]: inactive; negative | mutagenic call (Test System: AMES SALMONELLA TYPHIMURIUM, Strain/Indicator: TA98, Metabolic Activation: S-9 (10%), Method: PREINCUBATION): inactive; negative | mutagenic call [2]: inactive; negative | mutagenic call (Test System: AMES SALMONELLA TYPHIMURIUM, Strain/Indicator: TA100, Metabolic Activation: S-9 (10%), Method: PREINCUBATION): inactive; negative | mutagenic call [3]: inactive; negative | mutagenic call (Test System: AMES SALMONELLA TYPHIMURIUM, Strain/Indicator: TA102, Metabolic Activation: S-9 (10%), Method: PREINCUBATION): inactive; negative

CC(=O)Nc1ccc2cccnc2c1
mutagenic call [1]: inactive; negative | mutagenic call [4]: active; positive | mutagenic call [2]: inactive; negative | mutagenic call (Test System: AMES SALMONELLA TYPHIMURIUM, Strain/Indicator: TA100, Metabolic Activation: RAT, LIVER, S-9, KANECHLOR 500, Method: PREINCUBATION): active; positive

Cc1c(C(=O)O)c(O)cc2c1C(=O)c1c(O)c([C@@H]3O[C@@H](CO)[C@H](O)[C@@H](O)[C@H]3O)c(O)c(O)c1C2=O
mutagenic call (Test System: AMES SALMONELLA TYPHIMURIUM, Strain/Indicator: TA100, Method: PREINCUBATION): active; positive

NC1CCCC(N)C1 (stereo unspecified)
mutagenic call [1]: inactive; negative | mutagenic call (Test System: AMES SALMONELLA TYPHIMURIUM, Strain/Indicator: TA98, Metabolic Activation: RAT, LIVER, S-9, PCB, Method: PREINCUBATION): inactive; negative | mutagenic call [2]: inactive; negative | mutagenic call (Test System: AMES SALMONELLA TYPHIMURIUM, Strain/Indicator: TA100, Metabolic Activation: RAT, LIVER, S-9, PCB, Method: PREINCUBATION): inactive; negative

N#[N+]c1ccc(CO)cc1
mutagenic call (Test System: AMES SALMONELLA TYPHIMURIUM, Strain/Indicator: TA102, Metabolic Activation: NONE, Method: STANDARD PLATE): active; positive | mutagenic call (Test System: CHINESE HAMSTER V-79, Strain/Indicator: V-79/6-THIOGUANINE, Metabolic Activation: NONE): active; positive

CCc1cccc(CC)c1NC(=O)CO
mutagenic call [1]: inactive; negative | mutagenic call (Test System: AMES SALMONELLA TYPHIMURIUM, Strain/Indicator: TA98, Metabolic Activation: RAT, LIVER, MICROSOMES, PHENOBARBITAL, Method: PREINCUBATION): inactive; negative | mutagenic call [2]: inactive; negative | mutagenic call (Test System: AMES SALMONELLA TYPHIMURIUM, Strain/Indicator: TA100, Metabolic Activation: RAT, LIVER, MICROSOMES, PHENOBARBITAL, Method: PREINCUBATION): active; positive

C[n+]1ccc(-c2ccccc2)cc1
mutagenic call [2]: inactive; negative | mutagenic call [3]: inactive; negative

O=C1CC(O)C(O)c2ccc3c4c(ccc3c21)CCC4 (stereo unspecified)
mutagenic call (Test System: AMES SALMONELLA TYPHIMURIUM, Strain/Indicator: TA100, Metabolic Activation: RAT, LIVER, MICROSOMES, 15,16-DIHYDROCYCLOPENTA[A]PHENANTHREN-17-ONE, Method: STANDARD PLATE): inactive; negative | mutagenic call (Test System: AMES SALMONELLA TYPHIMURIUM, Strain/Indicator: TA100, Metabolic Activation: RAT, LIVER, MICROSOMES, AROCLOR 1254, Method: STANDARD PLATE): active; positive | mutagenic call (Test System: AMES SALMONELLA TYPHIMURIUM, Strain/Indicator: TA100, Metabolic Activation: RAT, LIVER, MICROSOMES, BENZO[A]PYRENE, Method: STANDARD PLATE): active; positive | mutagenic call (Test System: AMES SALMONELLA TYPHIMURIUM, Strain/Indicator: TA100, Metabolic Activation: RAT, LIVER, MICROSOMES, CLOFIBRATE, Method: STANDARD PLATE): inactive; negative | mutagenic call (Test System: AMES SALMONELLA TYPHIMURIUM, Strain/Indicator: TA100, Metabolic Activation: RAT, LIVER, MICROSOMES, DEXAMETHASONE, Method: STANDARD PLATE): inactive; negative | mutagenic call (Test System: AMES SALMONELLA TYPHIMURIUM, Strain/Indicator: TA100, Metabolic Activation: RAT, LIVER, MICROSOMES, ISONIAZID, Method: STANDARD PLATE): inactive; negative | mutagenic call (Test System: AMES SALMONELLA TYPHIMURIUM, Strain/Indicator: TA100, Metabolic Activation: RAT, LIVER, MICROSOMES, PHENOBARBITONE, Method: STANDARD PLATE): inactive; negative

O=C1CCCCC1=O
mutagenic call [5]: active; positive

CCCCCN(N=O)C(N)=O
mutagenic call (Test System: E. COLI B, Strain/Indicator: H/R30R, Metabolic Activation: NONE): active; positive | mutagenic call (Test System: E. COLI B, Strain/Indicator: HS30R, Metabolic Activation: NONE): active; positive

O=C1OC[C@@H](Cc2cccc(O)c2)[C@@H]1Cc1cccc(O)c1
mutagenic call (Test System: CHINESE HAMSTER V79 CELLS, Strain/Indicator: V79 CELLS (HPRT)/6-THIOGUANINE, Metabolic Activation: NONE, Method: SUSPENSION/PLATE): inactive; negative | mutagenic call (Test System: CHINESE HAMSTER V-79, Strain/Indicator: V-79 (HPRT)/6-THIOGUANINE, Metabolic Activation: NONE): inactive; negative

Nc1cc([N+](=O)[O-])c(-c2ccccc2)c([N+](=O)[O-])c1
mutagenic call [1]: inactive; negative | mutagenic call [4]: active; positive

CC1(C)[C@@H](O[C@H]2O[C@H](C(=O)O)[C@@H](O)[C@H](O)[C@H]2O[C@@H]2O[C@H](C(=O)O)[C@@H](O)[C@H](O)[C@H]2O)CC[C@]2(C)[C@H]3C(=O)C=C4[C@@H]5C[C@@](C)(C(=O)O)CC[C@]5(C)CC[C@@]4(C)[C@]3(C)CC[C@@H]12
mutagenic call (End Point: IN VIVO MICRONUCLEUS, Test System: BONE MARROW POLYCHROMATIC ERYTHROCYTES, Species: MOUSE, Strain/Sex: DDY/MALE, Route: IP): inactive; negative | mutagenic call (Test System: AMES SALMONELLA TYPHIMURIUM, Strain/Indicator: TA97A, Metabolic Activation: NONE, Method: PREINCUBATION): inactive; negative | mutagenic call (Test System: AMES SALMONELLA TYPHIMURIUM, Strain/Indicator: TA97A, Metabolic Activation: RAT, LIVER, S-9, AROCLOR 1254, Method: PREINCUBATION): inactive; negative | mutagenic call (Test System: AMES SALMONELLA TYPHIMURIUM, Strain/Indicator: TA98, Metabolic Activation: NONE, Method: STANDARD PLATE): inactive; negative | mutagenic call (Test System: AMES SALMONELLA TYPHIMURIUM, Strain/Indicator: TA98, Metabolic Activation: RAT, LIVER, S-9, AROCLOR 1254, Method: STANDARD PLATE): inactive; negative | mutagenic call [5]: inactive; negative | mutagenic call (Test System: AMES SALMONELLA TYPHIMURIUM, Strain/Indicator: TA100, Metabolic Activation: RAT, LIVER, S-9, AROCLOR 1254, Method: STANDARD PLATE): inactive; negative | mutagenic call [3]: inactive; negative | mutagenic call (Test System: AMES SALMONELLA TYPHIMURIUM, Strain/Indicator: TA102, Metabolic Activation: RAT, LIVER, S-9, AROCLOR 1254, Method: PREINCUBATION): inactive; negative | mutagenic call (Test System: AMES SALMONELLA TYPHIMURIUM, Strain/Indicator: TA1535, Metabolic Activation: NONE, Method: STANDARD PLATE): inactive; negative | mutagenic call (Test System: AMES SALMONELLA TYPHIMURIUM, Strain/Indicator: TA1535, Metabolic Activation: RAT, LIVER, S-9, AROCLOR 1254, Method: STANDARD PLATE): inactive; negative | mutagenic call (Test System: AMES SALMONELLA TYPHIMURIUM, Strain/Indicator: TA1537, Metabolic Activation: NONE, Method: STANDARD PLATE): inactive; negative | mutagenic call (Test System: AMES SALMONELLA TYPHIMURIUM, Strain/Indicator: TA1537, Metabolic Activation: RAT, LIVER, S-9, AROCLOR 1254, Method: STANDARD PLATE): inactive; negative | mutagenic call (Test System: AMES SALMONELLA TYPHIMURIUM, Strain/Indicator: TA1538, Metabolic Activation: NONE, Method: STANDARD PLATE): inactive; negative | mutagenic call (Test System: AMES SALMONELLA TYPHIMURIUM, Strain/Indicator: TA1538, Metabolic Activation: RAT, LIVER, S-9, AROCLOR 1254, Method: STANDARD PLATE): inactive; negative | mutagenic call (Test System: E. COLI, Strain/Indicator: WP2, Metabolic Activation: NONE, Method: STANDARD PLATE): inactive; negative | mutagenic call (Test System: E. COLI, Strain/Indicator: WP2, Metabolic Activation: RAT, LIVER, S-9, AROCLOR 1254, Method: STANDARD PLATE): inactive; negative
